The test system of one test is OdDHL. The format is biochemical, Pseudomonas aeruginosa.
The next test has as its system BHL. In kind it is biochemical, Pseudomonas aeruginosa.
For another test, the system named is E. coli D31. The format is cell-based.

Where two headings read alike, the source gives them in different places. Ends that are not written are not given here.

Regarding `O=S(=O)(F)Cc1ccccc1` [PMSF, phenylmethanesulphonyl fluoride], the “effect of inhibitor on OdDHL degradation by ES” value with OdDHL was “inhibited”. The “effect of pre-incubation of ES with inhibitor on BHL degradation” value with BHL is recorded as “degradation was prevented”.
“Cecropin B (KWKVFKKIEKMGRNIRNGIVKAGPAIAVLGEAKAL; ends and bridges not checked; UniProt P01508 27-61, looked up) [Cecropin B (Sigma), anti-microbial standard]”: the results for the antimicrobial plaque diameter in the test on E. coli D31 (2 μl Cecropin B at 10 μg/ml) and in the test with E. coli D31 (2 μl Cecropin B at 100 μg/ml) were 4.25 mm and 8 mm, respectively.

For the origin of these results see patent US20050260183A1, “Treatment of surfaces populated by bacteria with a lucilia sericata extract” (priority 2002, published 2005).
